According to US8669072B2, “Oxadiazoline ligands for modulating the expression of exogenous genes via an ecdysone receptor complex” (Intrexon Corporation, priority 2003, dated 2014):
Where two headings read alike, the source gives them in different places.

What was measured:
Tobacco Budworm = experiment: Insect toxicity bioassay, TBW; format: in vivo
Protocol: (§1) The compound to be evaluated was dissolved in an appropriate solvent, usually a mix of acetone, methanol, and water. Test solutions were made by serial dilution of a stock test solution with acetone, methanol, and water. Initial evaluations were made at one or more concentrations on one or more of the following insects:
(§2) Feeding bioassays were conducted in bioassay trays containing insect diet. Treatments were made by applying 50 μL of test solution to the surface of the diet in each of 5 wells. After the test solution dried, each well was infested with a single neonate larva. The trays were held for six days and then the mortality rating was determined for each treatment.
Some of the tobacco budworm tests were conducted as follows. A test solution containing 600 ppm was made by dissolving a compound of the invention in a 1:1 acetone:methanol solution, then adding water to give a 5:5:90 acetone:methanol:water solution, and finally a surfactant was added at an equivalent of 7.37 g of surfactant per 100 L of test solution (1 ounce of surfactant per 100 gallons of test solution). Appropriate dilutions were prepared in water from the 600 ppm solution. A detached cotton leaf, Gossypium hirsutum was placed on moistened filter paper in a Petri dish (100×20 mms). The leaf was sprayed with the test solution using a rotating turntable sprayer and allowed to dry. The dish was infested with 10 first instar larvae of the tobacco budworm and covered with the lid. If the larvae were alive two days after treatment, fresh untreated cotton leaves were added. All treatments were maintained at 23.9-26.7° C. (75-80° F.) under fluorescent light in a well-ventilated room. Percent mortality was determined at four days after treatment.

Cabbage Looper = experiment: Insect toxicity feeding bioassay, CL; format: in vivo
Protocol: as §1, §2

Beet Armyworm = experiment: Insect toxicity feeding bioassay, BAW; format: in vivo
Protocol: as §1, §2

[1] = test system: MTA (two-spotted spider mite); experiment: Insect toxicity contact bioassay, MTA; format: in vivo
Protocol: as §1
(§3) Contact bioassays (green peach aphid, two-spotted spider mite, white fly) were conducted by applying a solution of the test compound to the inside surface of a Petri dish. The solution was allowed to air-dry, then each dish was infested and the larvae from each treatment were transferred to a bioassay tray. The trays were held for one to seven days, and the mortality rating was determined for each treatment.

Bombyx mori EcR (VBE) = molecular target: T1, Bombyx mori EcR (VBE) (Bombyx mori, UniProt P49881); experiment: Z3 assay: β-galactosidase reporter gene induction in HEK-293 clone Z3 (CVBE / 6XEcRE LacZ); format: cell-based; settings: for fold induction at 33 µM: read-out: Fold Induction Average, Z3 assay
T1 construct: expressed in transfected cells; host or cells: Human HEK-293 cells, retrovirally infected, clone Z3
T1 sequence (P49881 86-606 limits assumed): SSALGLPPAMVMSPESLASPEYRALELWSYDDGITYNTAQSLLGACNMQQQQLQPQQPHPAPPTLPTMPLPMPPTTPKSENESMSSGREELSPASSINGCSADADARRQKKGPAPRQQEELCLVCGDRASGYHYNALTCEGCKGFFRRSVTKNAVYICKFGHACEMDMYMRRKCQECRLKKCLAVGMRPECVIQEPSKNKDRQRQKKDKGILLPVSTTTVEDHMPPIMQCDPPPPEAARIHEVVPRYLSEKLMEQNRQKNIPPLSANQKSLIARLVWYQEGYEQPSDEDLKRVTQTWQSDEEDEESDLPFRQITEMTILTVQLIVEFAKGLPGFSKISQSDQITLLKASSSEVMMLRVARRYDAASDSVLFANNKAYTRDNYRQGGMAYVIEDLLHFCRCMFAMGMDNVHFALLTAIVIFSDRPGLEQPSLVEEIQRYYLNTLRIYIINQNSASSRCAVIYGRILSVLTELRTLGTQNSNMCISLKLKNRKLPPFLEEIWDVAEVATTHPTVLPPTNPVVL
T1 sequence (P19793 1-462 partner): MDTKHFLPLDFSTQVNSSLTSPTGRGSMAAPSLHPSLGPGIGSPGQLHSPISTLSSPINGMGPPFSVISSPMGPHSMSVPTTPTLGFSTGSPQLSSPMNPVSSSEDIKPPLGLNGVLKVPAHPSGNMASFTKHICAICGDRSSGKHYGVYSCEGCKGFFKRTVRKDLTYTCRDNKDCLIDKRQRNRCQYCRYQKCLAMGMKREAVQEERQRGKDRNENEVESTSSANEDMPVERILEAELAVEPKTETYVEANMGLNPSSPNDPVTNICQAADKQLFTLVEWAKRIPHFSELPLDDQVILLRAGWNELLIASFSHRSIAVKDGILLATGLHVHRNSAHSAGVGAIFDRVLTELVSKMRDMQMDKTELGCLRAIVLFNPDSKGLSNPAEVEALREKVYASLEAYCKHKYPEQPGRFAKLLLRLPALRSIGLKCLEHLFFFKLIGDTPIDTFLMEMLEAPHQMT

WFN (white fly) = experiment: Insect toxicity contact bioassay, WFN; format: in vivo
Protocol: as §1, §3

[2] = molecular target: T2, GAL4 DBD (1-147)-CfEcR(DEF)/VP16AD-βRXREF-LmUSPEF (Choristoneura fumiferana, UniProt O77240); experiment: cell-based; settings: for fold induction at 33.3 µM: 48 h, read-out: Fold Induction Average, 27-63 assay; for Rel Max FI, 27-63 assay: maximum fold induction relative to that of GS-E ligand
T2 construct: The wild-type D, E, and F domains from spruce budworm Choristoneura fumiferana EcR (“CfEcR-DEF”)
Protocol: Stably transfected cells were selected by Zeocin resistance. Individually isolated CHO cell clones were transiently transfected with a GAL4 RE-luciferase reporter (pFR Luc). 27-63 clone was selected using Hygromycin.
Cells were trypsinized and diluted to a concentration of 2.5×10^4 cells mL. 100 μL of cell suspension was placed in each well of a 96 well plate and incubated at 37° C. under 5% CO2 for 24 h. Ligand stock solutions were prepared in DMSO and diluted 300 fold for all treatments.
Luciferase reporter gene expression was measured 48 h after cell treatment using Bright-Glo™ Luciferase Assay System from Promega (E2650). Luminescence was detected at room temperature using a Dynex MLX microtiter plate luminometer.
Each assay was conducted in two separate wells, and the two values were averaged. Fold inductions were calculated by dividing relative light units (“RLU”) in ligand treated cells with RLU in DMSO treated cells. EC50s were calculated from dose response data using a three-parameter logistic model.

[3] = molecular target: T3, GAL4 DBD-CfEcR(DEF)/VP16AD-MmRXRE (Choristoneura fumiferana, UniProt O77240); experiment: 13B3 assay: luciferase reporter gene induction in stable CHO clone 13B3; format: cell-based; settings: for fold induction at 33.3 µM: 48 h, read-out: Fold Induction Average, 13B3 assay
T3 construct: The wild-type D, E, and F domains from spruce budworm Choristoneura fumiferana EcR (“CfEcR-DEF”)
How it was run: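 Stable CHO clone 13B3 co-expressing GAL4 DBD-CfEcR(DEF) and VP16AD-MmRXRE with a GAL4 RE-luciferase reporter; ligands from DMSO stocks diluted 300-fold. Luciferase read by luminescence 48 h after treatment, duplicate wells averaged. Fold induction = RLU treated/RLU DMSO; EC50 from three-parameter logistic fit.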

[4] = 33 μM ligand, 48 h, RLU relative to DMSO
[5] = 33/33.3 μM ligand, RLU relative to DMSO
[6] = maximum fold induction relative to that of GS-E ligand
[7] = HEK293, 33 μM ligand, 48 h, RLU relative to DMSO

Row | Structure (SMILES) | EC50 [2] | fold induction at 33.3 µM [2] | Rel Max FI, 27-63 assay [2] | fold induction at 33.3 µM [3, 5] | fold induction at 33 µM (Bombyx mori EcR (VBE); [7]) | also measured
1 | CC1(C)ON=C(c2cccc(C(F)(F)F)c2)N1NC(=O)c1ccccc1 [RG-120015] | – | – | – | – | – | Insect Toxicity % control @ 150 ppm, TBW (Tobacco Budworm): 0% @ 150; Insect Toxicity % control @ 150 ppm, CL (Cabbage Looper): 0% @ 150; Insect Toxicity % control @ 150 ppm, BAW (Beet Armyworm): 80% @ 150; Insect Toxicity % control @ 150 ppm, MTA [1]: 0% @ 150; Fold Induction Average, Z3 assay (Bombyx mori EcR (VBE); [4]): 0.8; Insect Toxicity % control @ 150 ppm, WFN (WFN (white fly)): 0% @ 150
2 | CC1(C)ON=C(c2cccc(C(F)(F)F)c2)N1NC(=O)Cc1ccccc1 [RG-120021] | – | – | – | – | – | Insect Toxicity % control @ 150 ppm, TBW (Tobacco Budworm): 0% @ 150; Insect Toxicity % control @ 150 ppm, CL (Cabbage Looper): 0% @ 150; Insect Toxicity % control @ 150 ppm, BAW (Beet Armyworm): 100% @ 150; Insect Toxicity % control @ 150 ppm, MTA [1]: 51% @ 150; Fold Induction Average, Z3 assay (Bombyx mori EcR (VBE); [4]): 0.7; Insect Toxicity % control @ 150 ppm, WFN (WFN (white fly)): 0% @ 150
3 | CCc1c(OC)cccc1C(=O)NN1C(c2cc(C)cc(C)c2)=NOC12CCCC2 [RG-120049] | 3.42 µM | 2070 | 1.58 | 2660 | 310 | EC50 [3]: 3.57 µM; Rel Max FI, 13B3 assay [3, 6]: 1.56; EC50 (Bombyx mori EcR (VBE)): 1.6 µM; Rel Max FI, Z3 assay (Bombyx mori EcR (VBE); [6]): 0.88
4 | CCc1ccc(C(=O)NN2C(c3ccc(OC(F)(F)F)cc3)=NOC2(C)C)cc1 [RG-120055] | > 33 µM | 0.5 | 0 | 0.7 | 0.2 | –
5 | CCc1c(OC)cccc1C(=O)NN1C(c2ccc(OC)cc2OC)=NOC1(C)C [RG-120058] | > 33 µM | 0.3 | 0 | 0.3 | 1.7 | –
6 | CCc1ccc(C(=O)NN2C(c3ccc4c(c3)OCO4)=NOC2(C)C)cc1 [RG-120061] | > 33 µM | 0.9 | 0 | 0.4 | 0.6 | –
7 | CCc1c(OC)cccc1C(=O)NN1C(c2ccccc2)=NOC12CCCC2 [RG-120092] | 7.16 µM | 2190 | 1.15 | – | – | Insect Toxicity LC50, TBW (Tobacco Budworm; in vivo): 98 ppm; Insect Toxicity LC50, CL (Cabbage Looper; in vivo): 13 ppm; Insect Toxicity LC50, BAW (Beet Armyworm; in vivo): 47 ppm; Insect Toxicity LC50, MTA ([1]; in vivo): >150 ppm; Insect Toxicity LC50, WFN (WFN (white fly); in vivo): >150 ppm
8 | CCc1c(OC)cccc1C(=O)NN1C(c2ccc(Cl)cc2)=NOC1(C)C [RG-120099] | ~20 µM | 1330 | 0.64 | – | – | Insect Toxicity % control @ 150 ppm, TBW (Tobacco Budworm): 0% @ 150; Insect Toxicity % control @ 150 ppm, CL (Cabbage Looper): 40% @ 150; Insect Toxicity % control @ 150 ppm, BAW (Beet Armyworm): 100% @ 150; Insect Toxicity % control @ 150 ppm, MTA [1]: 0% @ 150; fold induction at 33 µM (Bombyx mori EcR (VBE); HEK293, 48 h): 0.2; Insect Toxicity % control @ 150 ppm, WFN (WFN (white fly)): 0% @ 150
9 | CCc1ccc(C(=O)NN2C(c3ccccc3)=NOC2(C)C)cc1 [RG-120115] | > 33 µM | – | 0 | – | – | fold induction at 33.3 µM [3]: 0.8; fold induction at 33 µM (Bombyx mori EcR (VBE); HEK293, 48 h): 9.1
10 | CCC1(C)ON=C(c2ccccc2)N1NC(=O)c1ccccc1 (stereo not shown) [RG-120118] | > 33 µM | 13.4 | 0 | 0.8 | 1.4 | –
11 | CCc1ccc(C(=O)NN2C(c3ccccc3)=NOC23CCOCC3)cc1 [RG-120124] | > 33 µM | 1 | 0 | 1.2 | 2 | –
12 | CCc1ccc(C(=O)NN2C(c3ccc(OC)cc3OC)=NOC2(C)C)cc1 [RG-120135] | > 33 µM | 0.7 | 0 | 0.4 | 0.7 | –
13 | CCc1ccc(C(=O)NN2C(c3ccccc3)=NOC2(C)CC)cc1 (stereo not shown) [RG-120137] | > 33 µM | 4.6 | 0 | 5.3 | 59 | –
14 | CCc1c(OC)cccc1C(=O)NN1C(c2ccccc2)=NOC12CCOCC2 [RG-120159] | > 33 µM | 3.7 | 0 | 0.1 | 0.2 | –
